SMILES strings stand for the structures.

What all share (type): cell-based, murine
For assay [1], the system named is iNOS mRNA. Nature of the assay: iNOS mRNA Northern blot, IFN-γ-stimulated N9 microglia. To be noted: N9 cells, IFN-γ 200 u ml, 24 h, tranilast 300 μM. Here is the method: Tranilast was a generous gift of Kissei Pharmaceuticals (Nagano, Japan). Murine recombinant IFN-γ was purchased from Boehringer (Mannheim, Germany). Dexamethasone (DEX) was obtained from Sigma (Deisenhofen, Germany). N9 murine microglial cells were a kind gift from P. Ricciardi-Castagnoli (Milano, Italy) (Righi, M., Mori, L., De Libero, G., Sironi, M., Biondi, A., Mantovani, A., Donini, S. D. and Ricciardi-Castagnoli, P. Eur J Immunol 19(8):1443-1448, 1989). The cells were cultured in Dulbecco's modified Eagle's medium (DMEM) supplemented with 10% foetal calf serum (FCS), 2 mM glutamine and penicillin ([…])/streptomycin (100 μg ml), and maintained at 37° C. in an atmosphere of 5% CO2. Viability was assessed by crystal violet staining.
Total RNA was isolated using the RNeasy kit (Qiagen, Hilden, Germany). Total RNA ([…]) was separated on 1.2% agarose gels and blotted onto nylon membranes (Amersham). The filters were hybridized according to standard procedures (Platten, M., Wild-Bode, C., Wick, W., Leitlein, J., Dichgans, J., and Weller, M., Int. J. Cancer, 93:53-61, 2001) with a ^32P-labelled murine cDNA probe for iNOS. For the generation of the iNOS probe, N9 cells were stimulated with IFN-γ ([…]) for 24 h. […]

Assay [2] relates to NF-κB. Nature of the assay: NF-κB reporter assay, IFN-γ-stimulated N9 microglia. As to conditions: N9 cells, IFN-γ 200 u ml, tranilast 30-300 μM, 4 h preincubation. Here is the method:
N9 murine microglial cells were seeded in a 96-well plate (8×10^3 well) and allowed to adhere for 24 h. The cells were transfected with an NK-κB cis-reporter gene plasmid (PathDetect* no. 219077, Stratagene) which encodes firefly luciferase in a NF-κB-dependent-manner. For each transfection, 0.2 μg DNA and 0.6 μl FuGene (Roche, Mannheim, Germany) were used. The cells were either co-transfected with 0.02 μg of the pFC-Mekk positive control plasmid, included in the NF-κB cis-reporting system from Stratagene, or with the pcDNA-3 plasmid, to maintain a constant amount of total DNA. In order to assess the unspecific background, a control transfection with pcDNA-3 only was included in all experiments. After 24 h the cells were washed twice with PBS (0.12 M NaCl, 0.01 M NaH2PO4×H2O, 0.031 M K2HPO4) and lysed using 40 μl well of Cell Lysis Buffer (mM):tricine pH 7.8 40, NaCl 50, EDTA 2, MgSO4 1, DTT 5, 1% Triton* X-100, all from Sigma. To optimize lysis, a freeze-thaw cycle was performed. Then the lysate was transferred to a LumiNunc™ plate (Nunc, Roskilde, Denmark). Luciferase assay reagent (100 μl) containing (mM): tricine pH 7.8 40, MgSO4 10, EDTA 0.5, DTT 10, coenzyme A 0.5 and beetle luciferin 0.5, ([…]), (all from Sigma) were added and luminescence was measured in a LumimatPlus (EG&G Berthold, Pforzheim, Germany). […]
(In general: A reporter such as luciferase makes a cellular process visible.)

Assay [3] concerns NF-κB. The experiment in a line: NF-κB reporter assay, LPS-stimulated N9 microglia. To be noted: N9 cells, LPS 10 μg/mL 4 hr, TNL pre-incubation 1 hr. Here is the method: NF-κB reporter gene activity was assayed as previously described (Platten, M. et al. 2001 supra). Briefly, 8×10^3 cells/well were seeded in a 96-well plate and transfected with an NF-κB cis reporter gene plasmid (PathDetect No. 219077, Stratagene) encoding firefly luciferase using FuGene™ transfection reagent (Roche). pFC-MEKK (Stratagene) and pcDNA3 plasmids cotransfected with the reporter plasmid served as positive and negative controls. After freezing and thawing, the cells were lysed in 40 mM Tricine (pH 7.8) containing 50 mM NaCl, 2 mM EDTA, 1 mM MgSO4, 5 mM DTT and 1% Triton X-100. Lysates were assayed using Luciferase assay reagent (40 mM Tricine, pH 7.8, containing 10 mM MgSO4, 0.5 mM EDTA, 10 mM DTT, 0.5 mM coenzyme A, […] and 0.5 mM beetle luciferine). Luminescence was measured in LumiNunc™ plates (Nunc) in a LumimatPlus™ (EG&G Berthold). Values are expressed as relative light units (RLU).

Assay [4] concerns PKCδ. Nature of the assay: PKCδ translocation by immunocytochemistry in N9 microglia. As to conditions: N9 cells, PMA 100 nM, TNL 300 μM. Here is the method: Cells grown on glass coverslips were serum-starved for 16 hr, kept in Krebs Ringer HEPES buffer (125 mM NaCl, 5 mM KCl, 1.2 mM MgSO4, 2 mM CaCl2, 1.2 mM KH2PO4, 6 mM glucose, 25 mM HEPES, pH 7.4) for 1 hr and left untreated or treated with PMA (100 nM) without or with pre-incubation (1 hr) with TNL (300 μM). After fixation in ice-cold (−20′) methanol for 20 min, the cells were washed with PBS and incubated for 15 min with 0.1% NaBH4 and 0.1 M glycine in PBS to block autofluorescence. Nonspecific antibody binding was blocked for 45 min with PBG (PBS with 0.045% fish gelatin) containing 5% normal goat serum and 1% bovine serum albumin. Incubation with anti-PKCδ antibody was carried out for 24 hr at 4° after dilution in PBG containing 5% normal goat serum. After four washes with PBG, primary antibody binding was detected with an isotype-specific secondary antibody conjugated with Alexa™546 fluorescent dye. The coverslips were mounted in PermaFluor (Immunotech). Localization of the proteins was examined using confocal laser microscopy (Leica).

For `COc1ccc(/C=C/C(=O)Nc2ccccc2C(=O)O)cc1OC` [tranilast, 2-[[3-(3,4-dimethoxyphenyl)-1-oxo-2-propenyl]amino]benzoic acid], the “IFN-γ-induced iNOS mRNA expression” value in assay [1] is “greatly suppressed”. Besides, the “NF-κB reporter gene activity in response to IFN-γ” value in assay [2] is “concentration-dependent suppression”. For the same compound, the “LPS-mediated NF-κB reporter gene activity” value in assay [3] is “did not suppress”. Further, in assay [4], the “PMA-induced translocation of PKCδ from cytosol to nucleus” value was “abolished”.

The values are drawn from patent publication US7531575B2, “Method of modulating cellular activity and agents useful for same” (Eberhard-Karls-Universität Tübingin, priority 2002, dated 2009).
